Laboratory results as given in patent publication US20040110776A1, “Use of propentofylline to control intraocular pressure” (priority 2003, published 2004).

How the values were obtained:
[1] = test system: MMP-3 expression in cultured human trabecular meshwork (HTM-35D) cells; assay: MMP-3 expression in cultured human trabecular meshwork (HTM-35D) cells, proMMP-3 ELISA of medium; assay type: cell-based; settings: 72 hours; for change in MMP-3 expression in the TM cells: indicated concentration (FIG. 1, lower panel)
Source text: Propentofylline was unexpectedly discovered to stimulate the expression of metalloproteinase-3 (MMP-3; stromelysin) in cultured human trabecular meshwork cells.
Effect of Various Compounds on MMP-3 Expression in Cultured Human Trabecular Meshwork (HTM-35D) Cells
Human TM cells were isolated, characterized and cultured as described (Steely et al, The effects of dexamethasone on fibronectin expression in cultured human trabecular meshwork cells, Investigative Ophthalmology and Visual Science, 1992;33:2242-2250) They were maintained at 5% CO2 and 37° C. in a medium consisting of Dulbecco's modified Eagle medium with Glutamax I supplemented with 10% fetal bovine serum and 50 μg/mL gentamicin. Confluent cell cultures were treated with the indicated compounds at the indicated final concentration for 72 hours and the medium assayed for proMMP-3 by a commercially available ELISA assay kit. (See FIG. 1.) Abbreviations: PPF-OH is hydroxypropentofylline.

Rabbit IOP = Rabbit IOP after topical ocular dosing (pneumatonometer); assay type: in vivo; settings: for effect on IOP of rabbits (in words): 500 μg topical (2×25 μL, 1% solution); for % Change in IOP Mean / IOP (mmHg) Mean: 500 μg topical, n = 10
Description: When propentofylline was tested in the rabbit for its potential effect on IOP. […] In this study, the rabbits were placed in restrainers, and IOP was determined with an Alcon Pneumatonometer after light corneal anesthesia with 0.1% proparacaine (Alcaine® diluted with physiogical saline). Following each IOP measurement, residual anesthetic was washed away with saline. After two baseline measurements, animals were dosed topically on the cornea with vehicle or propentofylline (2×25 μL, 1% solution). IOP measurements were taken at indicated intervals.

[2] = test system: IOP in ocular normotensive rabbits; settings: topical instillation of 2%; cited from earlier work
IOP in the rabbit = settings: cited from earlier work
[3] = test system: anterior segments of non-glaucomatous donor eyes; assay: Outflow in human ocular perfusion organ culture; settings: 100 μM continuous perfusion, days 2 and 3 after initiation of perfusion
Description: In this ex vivo study, the anterior segments of non-glaucomatous donor eyes were perfused continuously with 100 μM of propentofylline.
Human ocular perfusion organ culture was performed as described (Tschumper, et al. Glycosaminoglycans of human trabecular meshwork in perfusion organ culture. Current Eye Research, 1990;9:363-369; Clark et al, Dexamethasone-induced ocular hypertension in perfusion-cultured human eyes. Investigative Ophthalmology and Visual Science 1995;36:478-489). Briefly, human cadaver eyes, 16 to 20 hours post mortem, were dissected at the equator and the lens, vitreous and iris were removed. The anterior segment of the eye, including cornea and sclera ring containing TM and ciliary body, was placed into a custom-made plexiglass culture dish and sealed in place with a plexiglass O-ring. Culture media (Dulbecco's modified Eagle medium) was placed in a reservoir and perfused through a central cannula in the bottom of the dish. The reservoir was raised to generate approximately 11 mmHg of hydrostatic pressure relative to the center of the perfused eye. The weight of the reservoir was recorded daily. […]
After a 2-4 days stabilization period, the eyes were perfused with either 100 μM propentofylline (PPF) or vehicle alone and their outflow rates monitored for is another 4 days. * represents p<0.05 by Student's t-test. […]

lasered monkey eyes = assay: IOP in lasered (ocular hypertensive) monkey eyes; assay type: in vivo; settings: for IOP-lowering effect, single dose: 500 μg in aqueous solution, topical, lasered eye of unanesthetized monkeys; for IOP-lowering effect after repeated doses: 500 μg twice daily, 7 consecutive days, lasered monkey eyes
Description: The IOP-lowering effect of propentofylline in primates was discovered when tested in ocular hypertensive monkeys. In this animal model, the IOP of cynomolgus monkeys was artificially elevated by laser-induced photocoagulation of the TM.
Top Panel: IOP-lowering effect of Propentofylline (PPF) (500 μg) in lasered monkey eyes.
These monkeys received 500 μg of propentofylline twice daily for the indicated days and the IOP was measured right after the morning dosing.
Studies were performed as described previously (Toris, et al., Aqueous humor dynamics in monkeys with laser-induced glaucoma, Journal of Ocular Pharmacology and Therapeutics, 2000;16:19-27). (See FIG. 3.)

human anterior segment = settings: perfusion of the anterior segment; cited from earlier work

CCCn1cnc2c1c(=O)n(CCCCC(C)O)c(=O)n2C (stereo not drawn) [hydroxy-propentofylline]
change in MMP-3 expression in the TM cells [1]: did not produce a statistically significant change

CC(=O)CCCCn1c(=O)c2c(ncn2C)n(C)c1=O [Pentoxifylline]
effect on IOP of rabbits (in words) (Rabbit IOP): did not significantly lower IOP | % Change in IOP Mean (Rabbit IOP; 0 hour after treatment): 0.0% | IOP (mmHg) Mean (Rabbit IOP; 0 hour after treatment): 23.8 mmHg | % Change in IOP Mean (Rabbit IOP; 1 hour after treatment): −8.9% | IOP (mmHg) Mean (Rabbit IOP; 1 hour after treatment): 21.6 mmHg | % Change in IOP Mean (Rabbit IOP; 3 hours after treatment): −1.8% | IOP (mmHg) Mean (Rabbit IOP; 3 hours after treatment): 23.1 mmHg | % Change in IOP Mean (Rabbit IOP; 5 hours after treatment): 17.5% | IOP (mmHg) Mean (Rabbit IOP; 5 hours after treatment): 27.8 mmHg | % Change in IOP Mean (Rabbit IOP; 7 hours after treatment): 15.9% | IOP (mmHg) Mean (Rabbit IOP; 7 hours after treatment): 27.3 mmHg | change in MMP-3 expression in the TM cells [1]: did not produce a statistically significant change | effect on IOP [2]: slight decrease in IOP

OCCN(CCO)c1nc(N2CCCCC2)c2nc(N(CCO)CCO)nc(N3CCCCC3)c2n1 [dipyridamole]
change in MMP-3 expression in the TM cells [1]: did not produce a statistically significant change

CC(C)OC(=O)CCC/C=C\C[C@@H]1[C@@H](CC[C@@H](O)CCc2ccccc2)[C@H](O)C[C@@H]1O [latanoprost]
effect on IOP in the rabbit (IOP in the rabbit): no measurable effect on IOP

CCCn1cnc2c1c(=O)n(CCCCC(C)=O)c(=O)n2C [Propentofylline, 3-methyl-1-(5′-oxohexyl)-7-propyl-xanthine]
effect on IOP of rabbits (in words) (Rabbit IOP): did not affect the IOP of rabbits | tolerability (Rabbit IOP; 500 μg topical onto the eye): well tolerated | % Change in IOP Mean (Rabbit IOP; 0 hour after treatment): 0.0% | IOP (mmHg) Mean (Rabbit IOP; 0 hour after treatment): 23.5 mmHg | % Change in IOP Mean (Rabbit IOP; 1 hour after treatment): −10.0% | IOP (mmHg) Mean (Rabbit IOP; 1 hour after treatment): 21.0 mmHg | % Change in IOP Mean (Rabbit IOP; 3 hours after treatment): 1.3% | IOP (mmHg) Mean (Rabbit IOP; 3 hours after treatment): 23.6 mmHg | % Change in IOP Mean (Rabbit IOP; 5 hours after treatment): 1.1% | IOP (mmHg) Mean (Rabbit IOP; 5 hours after treatment): 23.5 mmHg | % Change in IOP Mean (Rabbit IOP; 7 hours after treatment): 4.7% | IOP (mmHg) Mean (Rabbit IOP; 7 hours after treatment): 24.0 mmHg | expression of MMP-3 ([1]; 100 μM, cultured human trabecular meshwork cells): significantly increased the expression of MMP-3 | outflow rates compared to vehicle-treated eyes [3]: significantly increased | IOP-lowering effect, single dose (lasered monkey eyes): clearly reduced IOP at 1 hour | IOP-lowering effect, single dose (lasered monkey eyes; listed as propentofylline): dramatic decrease in IOP | IOP-lowering effect after repeated doses (lasered monkey eyes): ocular hypotensive even after repeated doses | IOP-lowering effect after repeated doses (lasered monkey eyes; listed as propentofylline): persisted even after 7 consecutive days | tolerability (lasered monkey eyes; monkeys, 500 μg topical): well tolerated

N[C@@H](Cc1c[nH]c2ccccc12)C(=O)NO [L-tryptophan hydroxamate]
effect on outflow facility / aqueous outflow (in words) (human anterior segment): suppressed aqueous outflow

CN(C)c1ccc(O)c2c1C[C@H]1C[C@H]3[C@H](N(C)C)C(O)=C(C(N)=O)C(=O)[C@@]3(O)C(O)=C1C2=O [minocylcine]
effect on outflow facility / aqueous outflow (in words) (human anterior segment): suppressed aqueous outflow

CC[C@@H]1C(=O)OC[C@@H]1Cc1cncn1C [pilocarpine]
effect on IOP in the rabbit (IOP in the rabbit): no measurable effect on IOP

B1: interleukin-1α: cytokine known to increase the expression of matrix metalloproteinases in the TM (protein, UniProt P01583 113-271, looked up)
Interleukin-1 alpha: SAPFSFLSNVKYNFMRIIKYEFILNDALNQSIIRANDQYLTAAALHNLDEAVKFDMGAYKSSKDDAKITVILRISKTQLYVTAQDEDQPVLLKEMPEIPKTITGSETNLLFFWETHGTKNYFTSVAHPNLFIATKQDYWVCLAGGPPSITDFQILENQA
effect on outflow facility / aqueous outflow (in words) (human anterior segment): augmented the outflow facility
